In article PMC11484861 (Nature Communications, 2024):

System: SARS-CoV-2 M protein level
Assay type: cell-based, human

SMILES | IMβ3-5-promoted degradation of M, VP2 and PB1-F2 | decrease in M protein levels induced by SQSTM1
CCN(CC)CCCC(C)Nc1ccnc2cc(Cl)ccc12 (stereo not drawn) [CQ, chloroquine] | blocked | rescued
COC[C@H]1OC(=O)c2coc3c2[C@@]1(C)C1=C(C3=O)[C@@H]2CCC(=O)[C@@]2(C)C[C@H]1OC(C)=O [wortmannin] |  | rescued
